Tests used:
Conditions in all cases: in vivo, po
[1] = species on record: Homo sapiens; assay: Toxicity in […] assessed as incidence of fungal dermatitis at 250 mg, perorally for 3 days and weekly 250 mg, perorally maintenance dose for 26 +/- 4 weeks; type: organism-based
[2] = species on record: Homo sapiens; assay: Toxicity in […] assessed as incidence of increase in serum creatinine at 250 mg, perorally for 3 days and weekly 250 mg, perorally maintenance dose for 26 +/- 4 weeks; type: organism-based
[3] = species on record: Homo sapiens; assay: Toxicity in […] assessed as incidence of abdominal pain at 250 mg, perorally for 3 days and weekly 250 mg, perorally maintenance dose for 26 +/- 4 weeks; type: organism-based, Abdomen
[4] = species on record: Homo sapiens; assay: Toxicity in […] assessed as incidence of vertigo at 250 mg, perorally for 3 days and weekly 250 mg, perorally maintenance dose for 26 +/- 4 weeks; type: organism-based
[5] = species on record: Homo sapiens; assay: Toxicity in […] assessed as incidence of arthralgia at 250 mg, perorally for 3 days and weekly 250 mg, perorally maintenance dose for 26 +/- 4 weeks; type: organism-based
[6] = species on record: Homo sapiens; assay: Toxicity in […] assessed as incidence of somnolence at 250 mg, perorally for 3 days and weekly 250 mg, perorally maintenance dose for 26 +/- 4 weeks; type: organism-based
[7] = species on record: Homo sapiens; assay: Toxicity in […] assessed as incidence of viral infection at 250 mg, perorally for 3 days and weekly 250 mg, perorally maintenance dose for 26 +/- 4 weeks; type: organism-based
[8] = species on record: Homo sapiens; assay: Toxicity in […] assessed as incidence of insomnia at 250 mg, perorally for 3 days and weekly 250 mg, perorally maintenance dose for 26 +/- 4 weeks; type: organism-based
[9] = species on record: Homo sapiens; assay: Toxicity in […] assessed as incidence of phayngitis at 250 mg, perorally for 3 days and weekly 250 mg, perorally maintenance dose for 26 +/- 4 weeks; type: organism-based
[10] = species on record: Homo sapiens; assay: Toxicity in […] assessed as incidence of dizziness at 250 mg, perorally for 3 days and weekly 250 mg, perorally maintenance dose for 26 +/- 4 weeks; type: organism-based
[11] = species on record: Homo sapiens; assay: Toxicity in […] assessed as incidence of upper respiratory tract infection at 250 mg, perorally for 3 days and weekly 250 mg, perorally maintenance dose for 26 +/- 4 weeks; type: organism-based
[12] = species on record: Homo sapiens; assay: Toxicity in […] assessed as incidence of back pain at 250 mg, perorally for 3 days and weekly 250 mg, perorally maintenance dose for 26 +/- 4 weeks; type: organism-based
[13] = species on record: Homo sapiens; assay: Toxicity in […] assessed as incidence of gastroentertis at 250 mg, perorally for 3 days and weekly 250 mg, perorally maintenance dose for 26 +/- 4 weeks; type: organism-based
[14] = species on record: Homo sapiens; assay: Toxicity in […] assessed as incidence of abnormal retinal fluorescein at 250 mg, perorally for 3 days and weekly 250 mg, perorally maintenance dose for 26 +/- 4 weeks; type: organism-based
[15] = species on record: Homo sapiens; assay: Toxicity in […] assessed as incidence of increase in bilirubin at 250 mg, perorally for 3 days and weekly 250 mg, perorally maintenance dose for 26 +/- 4 weeks; type: organism-based
[16] = species on record: Homo sapiens; assay: Toxicity in […] assessed as incidence of musculoskeletal injury at 250 mg, perorally for 3 days and weekly 250 mg, perorally maintenance dose for 26 +/- 4 weeks; type: organism-based
[17] = species on record: Homo sapiens; assay: Toxicity in […] assessed as incidence of diarrhea at 250 mg, perorally for 3 days and weekly 250 mg, perorally maintenance dose for 26 +/- 4 weeks; type: organism-based
[18] = species on record: Homo sapiens; assay: Toxicity in […] assessed as incidence of rash at 250 mg, perorally for 3 days and weekly 250 mg, perorally maintenance dose for 26 +/- 4 weeks; type: organism-based
[19] = species on record: Homo sapiens; assay: Toxicity in […] assessed as incidence of nausea at 250 mg, perorally for 3 days and weekly 250 mg, perorally maintenance dose for 26 +/- 4 weeks; type: organism-based
[20] = species on record: Homo sapiens; assay: Toxicity in […] assessed as incidence of abnormal coordination at 250 mg, perorally for 3 days and weekly 250 mg, perorally maintenance dose for 26 +/- 4 weeks; type: organism-based
[21] = species on record: Homo sapiens; assay: Toxicity in […] assessed as incidence of headache at 250 mg, perorally for 3 days and weekly 250 mg, perorally maintenance dose for 26 +/- 4 weeks; type: organism-based
[22] = species on record: Homo sapiens; assay: Toxicity in […] assessed as incidence of vomiting at 250 mg, perorally for 3 days and weekly 250 mg, perorally maintenance dose for 26 +/- 4 weeks; type: organism-based
[23] = species on record: Homo sapiens; assay: Toxicity in […] assessed as incidence of depression at 250 mg, perorally for 3 days and weekly 250 mg, perorally maintenance dose for 26 +/- 4 weeks; type: organism-based
[24] = species on record: Homo sapiens; assay: Toxicity in […] assessed as incidence of abnormal dreams at 250 mg, perorally for 3 days and weekly 250 mg, perorally maintenance dose for 26 +/- 4 weeks; type: organism-based
[25] = species on record: Homo sapiens; assay: Toxicity in […] assessed as incidence of pigmentation of retinal epithelium at 250 mg, perorally for 3 days and weekly 250 mg, perorally maintenance dose for 26 +/- 4 weeks; type: organism-based
[26] = species on record: Homo sapiens; assay: Toxicity in […] assessed as incidence of diarrhea at 200 mg, perorally for 3 days and weekly 200 mg, perorally maintenance dose for 26 +/- 4 weeks; type: organism-based
[27] = species on record: Homo sapiens; assay: Toxicity in […] assessed as incidence of vomiting at 200 mg, perorally for 3 days and weekly 200 mg, perorally maintenance dose for 26 +/- 4 weeks; type: organism-based
[28] = species on record: Homo sapiens; assay: Toxicity in […] assessed as incidence of depression at 200 mg, perorally for 3 days and weekly 200 mg, perorally maintenance dose for 26 +/- 4 weeks; type: organism-based
[29] = species on record: Homo sapiens; assay: Toxicity in […] assessed as incidence of abdominal pain at 200 mg, perorally for 3 days and weekly 200 mg, perorally maintenance dose for 26 +/- 4 weeks; type: organism-based, Abdomen
[30] = species on record: Homo sapiens; assay: Toxicity in […] assessed as incidence of increase in bilirubin at 200 mg, perorally for 3 days and weekly 200 mg, perorally maintenance dose for 26 +/- 4 weeks; type: organism-based
[31] = species on record: Homo sapiens; assay: Toxicity in […] assessed as incidence of paroniria at 200 mg, perorally for 3 days and weekly 200 mg, perorally maintenance dose for 26 +/- 4 weeks; type: organism-based
[32] = species on record: Homo sapiens; assay: Toxicity in […] assessed as incidence of somnolence at 200 mg, perorally for 3 days and weekly 200 mg, perorally maintenance dose for 26 +/- 4 weeks; type: organism-based
[33] = species on record: Homo sapiens; assay: Toxicity in […] assessed as incidence of viral infection at 200 mg, perorally for 3 days and weekly 200 mg, perorally maintenance dose for 26 +/- 4 weeks; type: organism-based
[34] = species on record: Homo sapiens; assay: Toxicity in […] assessed as incidence of agitation at 200 mg, perorally for 3 days and weekly 200 mg, perorally maintenance dose for 26 +/- 4 weeks; type: organism-based
[35] = species on record: Homo sapiens; assay: Toxicity in […] assessed as incidence of decrease in hematocrit at 200 mg, perorally for 3 days and weekly 200 mg, perorally maintenance dose for 26 +/- 4 weeks; type: organism-based; set-up: scale not given: the % may be the effect or the level left
[36] = species on record: Homo sapiens; assay: Toxicity in […] assessed as incidence of dizziness at 200 mg, perorally for 3 days and weekly 200 mg, perorally maintenance dose for 26 +/- 4 weeks; type: organism-based
[37] = species on record: Homo sapiens; assay: Toxicity in […] assessed as incidence of anxiety at 200 mg, perorally for 3 days and weekly 200 mg, perorally maintenance dose for 26 +/- 4 weeks; type: organism-based
[38] = species on record: Homo sapiens; assay: Toxicity in […] assessed as incidence of arthralgia at 200 mg, perorally for 3 days and weekly 200 mg, perorally maintenance dose for 26 +/- 4 weeks; type: organism-based
[39] = species on record: Homo sapiens; assay: Toxicity in […] assessed as incidence of abnormal coordination at 200 mg, perorally for 3 days and weekly 200 mg, perorally maintenance dose for 26 +/- 4 weeks; type: organism-based
[40] = species on record: Homo sapiens; assay: Toxicity in […] assessed as incidence of fungal dermatitis at 200 mg, perorally for 3 days and weekly 200 mg, perorally maintenance dose for 26 +/- 4 weeks; type: organism-based
[41] = species on record: Homo sapiens; assay: Toxicity in […] assessed as incidence of amnesia at 200 mg, perorally for 3 days and weekly 200 mg, perorally maintenance dose for 26 +/- 4 weeks; type: organism-based
[42] = species on record: Homo sapiens; assay: Toxicity in […] assessed as incidence of pigmentation of retinal epithelium at 200 mg, perorally for 3 days and weekly 200 mg, perorally maintenance dose for 26 +/- 4 weeks; type: organism-based
[43] = species on record: Homo sapiens; assay: Toxicity in […] assessed as incidence of nausea at 200 mg, perorally for 3 days and weekly 200 mg, perorally maintenance dose for 26 +/- 4 weeks; type: organism-based
[44] = species on record: Homo sapiens; assay: Toxicity in […] assessed as incidence of headache at 200 mg, perorally for 3 days and weekly 200 mg, perorally maintenance dose for 26 +/- 4 weeks; type: organism-based
[45] = species on record: Homo sapiens; assay: Toxicity in […] assessed as incidence of abnormal retinal fluorescein at 200 mg, perorally for 3 days and weekly 200 mg, perorally maintenance dose for 26 +/- 4 weeks; type: organism-based
[46] = species on record: Homo sapiens; assay: Toxicity in […] assessed as incidence of abnormal dreams at 200 mg, perorally for 3 days and weekly 200 mg, perorally maintenance dose for 26 +/- 4 weeks; type: organism-based
[47] = species on record: Homo sapiens; assay: Toxicity in […] assessed as incidence of rash at 200 mg, perorally for 3 days and weekly 200 mg, perorally maintenance dose for 26 +/- 4 weeks; type: organism-based
[48] = species on record: Homo sapiens; assay: Toxicity in […] assessed as incidence of phayngitis at 200 mg, perorally for 3 days and weekly 200 mg, perorally maintenance dose for 26 +/- 4 weeks; type: organism-based
[49] = species on record: Homo sapiens; assay: Toxicity in […] assessed as incidence of euphoria at 200 mg, perorally for 3 days and weekly 200 mg, perorally maintenance dose for 26 +/- 4 weeks; type: organism-based
[50] = species on record: Homo sapiens; assay: Toxicity in […] assessed as incidence of back pain at 200 mg, perorally for 3 days and weekly 200 mg, perorally maintenance dose for 26 +/- 4 weeks; type: organism-based
[51] = species on record: Homo sapiens; assay: Toxicity in […] assessed as incidence of increase in serum creatinine at 200 mg, perorally for 3 days and weekly 200 mg, perorally maintenance dose for 26 +/- 4 weeks; type: organism-based
[52] = species on record: Homo sapiens; assay: Toxicity in […] assessed as incidence of vertigo at 200 mg, perorally for 3 days and weekly 200 mg, perorally maintenance dose for 26 +/- 4 weeks; type: organism-based
[53] = species on record: Homo sapiens; assay: Toxicity in […] assessed as incidence of tremor at 200 mg, perorally for 3 days and weekly 200 mg, perorally maintenance dose for 26 +/- 4 weeks; type: organism-based
[54] = species on record: Homo sapiens; assay: Toxicity in […] assessed as incidence of decrease in hematocrit at 250 mg, perorally for 3 days and weekly 250 mg, perorally maintenance dose for 26 +/- 4 weeks relative to baseline; type: organism-based; set-up: scale not given: the % may be the effect or the level left
[55] = species on record: Homo sapiens; assay: Toxicity in […] assessed as incidence of insomnia at 200 mg, perorally for 3 days and weekly 200 mg, perorally maintenance dose for 26 +/- 4 weeks; type: organism-based
[56] = species on record: Homo sapiens; assay: Toxicity in […] assessed as incidence of vortex keratopathy at 200 mg, perorally for 3 days and weekly 200 mg, perorally maintenance dose for 26 +/- 4 weeks; type: organism-based

**Q.** Which results are given for `OC(c1cc(C(F)(F)F)nc2c(C(F)(F)F)cccc12)C1CCCCN1` (stereo unspecified) [MEFLOQUINE]?
**A.** Activity [1]: 8%; Activity [2]: 10%; Activity [3]: 13%; Activity [4]: 8%; Activity [5]: 18%; Activity [6]: 6%; Activity [7]: 13%; Activity [8]: 3%; Activity [9]: 3%; Activity [10]: 2%; Activity [11]: 32%; Activity [12]: 26%; Activity [13]: 51%; Activity [14]: 100%; Activity [15]: 0.6%; Activity [16]: 49%; Activity [17]: 30%; Activity [18]: 21%; Activity [19]: 13%; Activity [20]: 1%; Activity [21]: 20%; Activity [22]: 8%; Activity [23]: 1%; Activity [24]: 2%; Activity [25]: 23.5%

**Q.** Which results are given for `COc1cc(C)c2c(Oc3cccc(C(F)(F)F)c3)c(OC)cc(NC(C)CCCN)c2n1` (stereo unspecified) [TAFENOQUINE]?
**A.** Activity [26]: 77%; Activity [27]: 21%; Activity [28]: 1%; Activity [29]: 24%; Activity [30]: 2.6%; Activity [31]: 1%; Activity [32]: 12%; Activity [33]: 39%; Activity [34]: 2%; Activity [35]: 20%; Activity [36]: 5%; Activity [37]: 2%; Activity [38]: 55%; Activity [39]: 2%; Activity [40]: 44%; Activity [41]: 1%; Activity [42]: 39.1%; Activity [43]: 28%; Activity [44]: 61%; Activity [45]: 28.6%; Activity [46]: 7%; Activity [47]: 70%; Activity [48]: 25%; Activity [49]: 2%; Activity [50]: 74%; Activity [51]: 19%; Activity [52]: 22%; Activity [53]: 2%; Activity [54]: 15%; Activity [55]: 5%; Activity [56]: 93.2%
